Source: US5594103A, “Lantibiotics similar to nisin a” (Stichting Nederlands Instituut Voor Zuivelonderzoek (NIZO), priority 1991, dated 1997)
In brackets after ≈: the same amount, converted by molar mass.

What was measured:
[1] = tested on: Lactococcus lactis subsp. cremoris BA3; test: inhibition spectrum, agar diffusion method; type: cell-based
Text: (§1) The antimicrobial activity of nisin Z was compared with that of nisin A. In this case, and for further comparisons of the two lantibiotics, use was made of preparations which had been purified with the aid of RP-HPLC [see above] and for which the precise amounts of lantibiotic had been determined by determining the absorption at 220 nm. […] The difference comprised both the shape and the gradient of the dose/response curve which relates the amount of lantibiotic added and the diameter of the inhibition zones. In this context it should be pointed out that nisin concentrations which are used in practice are always higher than 2.5 μg/ml [Delves-Broughton, Food Manufacture, March 1987 pp. 63-64]. so that measurements at lower concentrations are more of academic than of practical interest. […] Milk Dairy J., 15 (1961) 127-132]. […] A differentiation between these is made by determining the minimum inhibitory concentrations (MIC) of nisin Z and nisin A which effected growth inhibition in the case of the microorganisms used. In this determination use was also made of M. flavus DSM1719 and S. thermophilus Rs cultured at 37° C. in, respectively, nutrient broth (Difco) and whey permeate containing 0.2% yeast extract. Various amounts of nisin Z and nisin A were added to exponentially growing cultures of both organisms, after which the growth was compared with that of cultures to which no lantibiotic had been added.

[2] = tested on: Clostridium tyrobutyricum BZ15; test: inhibition spectrum, agar diffusion method; type: cell-based
Text: as §1

[3] = tested on: Bacillus cereus strains VC1, P7 and C5; test: inhibition spectrum, agar diffusion method; type: cell-based
Text: as §1

[4] = tested on: Listeria monocytogenes strain 1, 4B, 13 and 669; test: inhibition spectrum, agar diffusion method; type: cell-based
Text: as §1

[5] = tested on: Brevibacterium linens ATCC 9174; test: inhibition spectrum, agar diffusion method; type: cell-based
Text: as §1

solubility determination = type: physicochemical; settings: for Solubility: 0.15M NaCl, room temperature
S. thermophilus Rs [6] = test: minimum inhibitory concentration in exponentially growing cultures; type: cell-based; settings: 37° C., whey permeate containing 0.2% yeast extract
Text: as §1, with “Various amounts of nisin Z and nisin A were added to exponentially growing cultures of both organisms, after which the growth was compared with that of cultures to which no lantibiotic had been added.” left out

M. flavus DSM1719 = test: as above; type: cell-based; settings: 37° C., nutrient broth
Text: as §1, with “Various amounts of nisin Z and nisin A were added to exponentially growing cultures of both organisms, after which the growth was compared with that of cultures to which no lantibiotic had been added.” left out

chymotrypsin = test: sensitivity for proteolytic enzymes (RP-HPLC integrity and residual activity); type: physicochemical; settings: nisin Z versus nisin A
Procedure: (§2) The sensitivity of the lantibiotics for some proteolytic enzymes has been described [Hurst, see above]. The sensitivity of nisin Z and nisin A for the proteolytic enzymes trypsin and chymotrypsin were determined by determining the integrity and the biological residual activity of the lantibiotics with the aid of, respectively, RP-HPLC and the agar diffusion assay [see above] after incubation with one of these enzymes.

trypsin = test: as above; type: physicochemical; settings: nisin Z versus nisin A
Procedure: as §2

[7] = tested on: Micrococcus flavus (M. f.) strain DSM 1790; test: MIC bioassay from OD600nm inhibition curves; type: cell-based; settings: 8 hours at 30° C., shaken; less than 1% increase in OD600nm
Procedure: (§3) The antimicrobial activities referred to above were measured in a bioassay using Micrococcus flavus (M. f.) strain […], Bacillus cereus (B.c.) strain 5227 and Strepococcus thermophilus (S.t.) strain 3218 as indicator strains. Minimum inhibitory concentration (MIC) values were determined in the following way. Cultures of indicator organisms grown overnight were diluted to OD600nm values or 0.05 (M.f.) or 0.025 (S.t. and B.c.) and divided into 10 5 ml portions in tubes. These tubes were inoculated with various amounts of nisin A or (mutant) nisin Z and incubated aerobically under the following conditions (M.f.: 8 hours at 30° C., shaken; S.t.: 3 hours at 37° C., without shaking; B.c.: 6 hours at 30° C., shaken). The OD600nm was then measured. Without the addition of nisin, the final OD600nm values were approximately 1.2 for M.f., 0.5 for S.t. and 0.8 for B.c. All experiments were carried out in triplicate. The MIC values were determined from the inhibition curves by calculating the minimum concentration of (mutant) nisin at which less than a 1% increase in the OD600nm occurred. The solubilities of nisin A, nisin Z and the mutants N27K-nisin Z and H31K-nisin Z were determined in the range between pH 6.0 and pH 7.5. It can be seen from the results that in this range nisin Z is 1.5 to 2 times more soluble than nisin A and that the nisin Z mutants having an additional positive charge are 5 to 10 times more soluble than nisin A (Table 2).

[8] = tested on: Strepococcus thermophilus (S.t.) strain 3218; test: MIC bioassay from OD600nm inhibition curves; type: cell-based; settings: 3 hours at 37° C., without shaking; less than 1% increase in OD600nm
Procedure: as §3

[9] = tested on: Bacillus cereus (B.c.) strain 5227; test: MIC bioassay from OD600nm inhibition curves; type: cell-based; settings: 6 hours at 30° C., shaken; less than 1% increase in OD600nm
Procedure: as §3

[10] = tested on: Micrococcus flavus DSM 1719; test: agar diffusion bioassay, M. flavus as indicator; type: cell-based
Procedure: (§4) The strain NIZO 22186 was isolated from an industrially obtained fermented milk product and identified as a L. lactis strain which ferments sucrose and produces an antimicrobial activity in the culture medium. This antimicrobial activity was determined by the agar diffusion bioassay method [Tramer and Fowler, J. Sci. Food Agric. 15 (1964) 522-528] using Micrococcus flavus DSM 1719 cultured in nutrient broth(Difco) as indicator. The supernatant of a culture of strain […] cultured on lactose M17 medium (Difco) containing 0-5% sucrose or glucose contained an antimicrobial activity which, compared with strain NIZO R5 [Galesloot and Pette, Neth. […] The absorption was monitored at 220 nm. […] The purified peptide material from strain […] and purified commercial nisin A were then hydrolysed for 24 hours in 6N HCl at 110° C. under nitrogen, concentrated by freeze-drying and, after dissolving in 0.2M Na citrate buffer of pH 2.2, analyzed in a LKB 4151 amino acid analyser. […]
(§5) The antimicrobial activity of nisin Z was compared with that of nisin A. In this case, and for further comparisons of the two lantibiotics, use was made of preparations which had been purified with the aid of RP-HPLC [see above] and for which the precise amounts of lantibiotic had been determined by determining the absorption at 220 nm. […]

S. thermophilus Rs [11] = test: agar diffusion bioassay, S. thermophilus Rs as indicator; type: cell-based; settings: S. thermophilus Rs in TGV medium, versus nisin A
Procedure: as §4, §5

anti-nisin A antibodies = test: competitive ELISA with anti-nisin A antibodies; type: binding
Text: Because the only difference between nisin Z and nisin A consists in the His27Asn substitution, the agreement between nisin Z and nisin A in respect of proteolytic sensitivity for these two enzymes is easily explainable. However, there are significant differences in physicochemical characteristics between the two abovementioned lantibiotics.

SMILES: C=C(NC(=O)[C@@H](NC(=O)[C@H](Cc1c[nH]cn1)NC(=O)[C@@H](NC(=O)[C@H](CO)NC(=O)[C@@H]1CS[C@@H](C)[C@H]2NC(=O)[C@H](C)NC(=O)[C@H](NC(=O)[C@H](CCCCN)NC(=O)[C@H](CCSC)NC(=O)[C@H](CC(N)=O)NC(=O)[C@@H]3CS[C@@H](C)[C@@H](NC(=O)[C@H](CCCCN)NC(=O)[C@@H]4CS[C@@H](C)[C@@H](NC(=O)[C@@H]5CSC[C@@H](NC(=O)/C(=C/C)NC(=O)[C@@H](N)[C@@H](C)CC)C(=O)N[C@@H]([C@@H](C)CC)C(=O)NC(=C)C(=O)N[C@@H](CC(C)C)C(=O)N5)C(=O)N5CCC[C@H]5C(=O)NCC(=O)N4)C(=O)NCC(=O)N[C@@H](C)C(=O)N[C@@H](CC(C)C)C(=O)N[C@@H](CCSC)C(=O)NCC(=O)N3)[C@H](C)SC[C@H](NC2=O)C(=O)N[C@@H](CC(N)=O)C(=O)N1)[C@@H](C)CC)C(C)C)C(=O)N[C@@H](CCCCN)C(=O)O [nisin Z]
- antimicrobial activity (inhibition spectrum) [1]: comparably high antimicrobial activity
- antimicrobial activity (inhibition spectrum) [2]: comparably high antimicrobial activity
- antimicrobial activity (inhibition spectrum) [3]: comparably high antimicrobial activity
- antimicrobial activity (inhibition spectrum) [4]: comparably high antimicrobial activity
- antimicrobial activity (inhibition spectrum) [5]: comparably high antimicrobial activity
- solubility compared with nisin A (solubility determination; alkaline pH): greater than that of nisin A
- Solubility (solubility determination; pH 6.0): 2600 µg/mL (≈ 781 µM)
- Solubility (solubility determination; pH 6.5): 1500 µg/mL (≈ 450 µM)
- Solubility (solubility determination; pH 7.0): 800 µg/mL (≈ 240 µM)
- Solubility (solubility determination; pH 7.5): 600 µg/mL (≈ 180 µM)
- minimum inhibitory concentration (MIC) (S. thermophilus Rs [6]): 0.03 µg/mL (≈ 0.00901 µM)
- minimum inhibitory concentration (MIC) (M. flavus DSM1719): 0.015 µg/mL (≈ 0.0045 µM)
- sensitivity for chymotrypsin (chymotrypsin): comparable
- sensitivity for trypsin (trypsin): comparable
- Minimum Inhibitory Concentration, Micrococcus flavus [7]: 11 µg/L
- Minimum Inhibitory Concentration, S. thermophilus [8]: 6 µg/L
- Minimum Inhibitory Concentration, B. cereus [9]: 130 µg/L
- diffusion rate in an agar medium ([10]; compared with nisin A): higher diffusion rate
- zones of growth inhibition (diameter of halo) ([10]; concentrations above 0.03 μg/ml, versus same amount of nisin A): always found to be greater than those obtained with the same amount of nisin A
- zones of growth inhibition (S. thermophilus Rs [11]): Comparable results
- reaction in competitive ELISA (anti-nisin A antibodies): no reaction
